Measured values as given in PubChem BioAssay AID1963982 (Molecular Pharmacology Branch, DTP, NCI, 2024).

Tested on: 313798-341-R-J2-PDC spheroids, viability
Test: Anticancer human tumor 313798-341-R-J2-PDC patient-derived cervical squamous cell carcinoma cell line growth inhibition [PI3K]
Details: spheroids with HUVEC and MSC; for IC50: curve of first compound; for viability, T/C: stronger effect = lower value
In short: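 Stroma-containing spheroids: tumor line, pooled-donor HUVEC, hMSC. Treatments: targeted agents with PI3K inhibitors. Dosing: clinically relevant, half-log spacing, 10 microM ceiling without known Cmax. Read-out: cell viability.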
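Note: spheroids exposed to compounds for seven days.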
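Throughout, for viability, T/C: 100% = DMSO vehicle control viability.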

For `CC(=O)c1c(C)c2cnc(Nc3ccc(N4CCNCC4)cn3)nc2n(C2CCCC2)c1=O` + Cc1nc(NC(=O)N2CCCC2C(N)=O)sc1-c1ccnc(C(C)(C)C(F)(F)F)c1, the IC50 (second compound 0.0316 µM) was over 100 nM, the IC50 (second compound 0.1 µM) was over 100 nM and the IC50 (second compound 0.316 µM) was over 100 nM. For the same molecule, the IC50 (second compound 1 µM) was over 100 nM, the IC50 (second compound 3.16 µM) was over 100 nM and the IC50 (second compound 10 µM) was under 0.316 nM. For the same molecule, the viability, T/C (second compound 0.0316 µM, first compound 0.000316 µM) was 105%, the viability, T/C (second compound 0.0316 µM, first compound 0.001 µM) was 96.5% and the viability, T/C (second compound 0.0316 µM, first compound 0.00316 µM) was 110%. The viability, T/C (second compound 0.0316 µM, first compound 0.01 µM) was 105%, the viability, T/C (second compound 0.0316 µM, first compound 0.0316 µM) was 108% and the viability, T/C (second compound 0.0316 µM, first compound 0.1 µM) was 111%. It also gave a viability, T/C (second compound 0.1 µM, first compound 0.000316 µM) of 108%, a viability, T/C (second compound 0.1 µM, first compound 0.001 µM) of 99.1% and a viability, T/C (second compound 0.1 µM, first compound 0.00316 µM) of 107%. The viability, T/C (second compound 0.1 µM, first compound 0.01 µM) was 107%, the viability, T/C (second compound 0.1 µM, first compound 0.0316 µM) was 123% and the viability, T/C (second compound 0.1 µM, first compound 0.1 µM) was 110%. The viability, T/C (second compound 0.316 µM, first compound 0.000316 µM) was 110%, the viability, T/C (second compound 0.316 µM, first compound 0.001 µM) was 101% and the viability, T/C (second compound 0.316 µM, first compound 0.00316 µM) was 96.3%. The viability, T/C (second compound 0.316 µM, first compound 0.01 µM) was 108%, the viability, T/C (second compound 0.316 µM, first compound 0.0316 µM) was 104% and the viability, T/C (second compound 0.316 µM, first compound 0.1 µM) was 115%. The viability, T/C (second compound 1 µM, first compound 0.000316 µM) was 95.2%, the viability, T/C (second compound 1 µM, first compound 0.001 µM) was 98.1% and the viability, T/C (second compound 1 µM, first compound 0.00316 µM) was 96%. For the same molecule, the viability, T/C (second compound 1 µM, first compound 0.01 µM) was 98.7%, the viability, T/C (second compound 1 µM, first compound 0.0316 µM) was 104% and the viability, T/C (second compound 1 µM, first compound 0.1 µM) was 102%. It also gave a viability, T/C (second compound 3.16 µM, first compound 0.000316 µM) of 68.3%, a viability, T/C (second compound 3.16 µM, first compound 0.001 µM) of 58.9% and a viability, T/C (second compound 3.16 µM, first compound 0.00316 µM) of 71.8%. For the same molecule, the viability, T/C (second compound 3.16 µM, first compound 0.01 µM) was 69.4%, the viability, T/C (second compound 3.16 µM, first compound 0.0316 µM) was 58.4% and the viability, T/C (second compound 3.16 µM, first compound 0.1 µM) was 79%. For the same molecule, the viability, T/C (second compound 10 µM, first compound 0.000316 µM) was 40.4%, the viability, T/C (second compound 10 µM, first compound 0.001 µM) was 41.7% and the viability, T/C (second compound 10 µM, first compound 0.00316 µM) was 39.5%. It also gave a viability, T/C (second compound 10 µM, first compound 0.01 µM) of 33%, a viability, T/C (second compound 10 µM, first compound 0.0316 µM) of 41.4% and a viability, T/C (second compound 10 µM, first compound 0.1 µM) of 36.4%.
